We go through one compound from publication PMC8881610 (Nature Communications, 2022).

Where two headings read alike, the source gives them in different places.

In assay [1] the target is GCGR (Homo sapiens, UniProt P47871). Description: Whole-cell binding assay, competition with 125I-GCG. Details: V5 (C); 6×His (C); expressed in transfected cells; host or cells: CHO-K1. The protocol: (§1) Human embryonic kidney 293 cells containing SV40 large T-antigen (HEK293T) were cultured in DMEM (Gibco) supplemented with 10% (v/v) fetal bovine serum (FBS, Gibco), 1 mM sodium pyruvate (Gibco) and 100 units/mL penicillin and 100 μg/mL streptomycin at 37 °C in 5% CO2. Chinese hamster ovary (CHO-K1) cells were cultured in F-12 (Gibco) containing 10% FBS, 100 units/mL penicillin and 100 μg/mL streptomycin at 37 °C in 5% CO2. For cAMP and receptor expression assays, HEK293T cells were seeded into 6-well cell culture plates at a density of 7 × 10^5 cells per well. After overnight incubation, cells were transfected with GIPR, GLP-1R or GCGR construct using Lipofectamine 2000 or Lipofectamine 3000 transfection reagent (Invitrogen). For whole-cell binding assay, CHO-K1 cells were seeded into 96-well fibronectin-treated cell culture plates at a density of 3 × 10^4 cells per well. After overnight incubation, cells were transfected with GIPR, GLP-1R or GCGR construct using Lipofectamine 2000 transfection reagent (Invitrogen). Following 24 h culturing, the transfected cells were ready for use.
For GLP-1R and GCGR, CHO-K1 cells (30,000 cells/well) were seeded into Isoplate-96 plates and incubated for 24 h at 37 °C in 5% CO2. The WT or mutant constructs were transiently transfected using Lipofectamine 2000 transfection reagent as previous described. They were then washed twice using F-12 with 0.1% BSA or 0.1% casein, 33 mM HEPES, and incubated for 2 h at 37 °C. […] Cells were washed three times with ice-cold PBS and lysed in PBS with 1% Triton X-100, 20 mM Tris-HCl. After addition of scintillation cocktail (PerkinElmer), radioactivity (CPM) was counted on a MicroBeta^2 microplate counter (PerkinElmer). Data were normalized to the WT response and analyzed using three-parameter logistic equation.

In assay [2] the target is T1, GLP-1R (Homo sapiens, UniProt P43220). Description: cAMP accumulation assay, GLP-1R WT, mutant or modified constructs. It is filed as cell-based. More on the design: Flag; expressed in transfected cells; host or cells: HEK293T. Conditions: HEK293T; for Emax: HEK-293T. The protocol:
as §1
The human GLP-1R was modified with its native signal sequence (M1-P23) replaced by the HA signal peptide to facilitate receptor expression. To obtain a GLP-1R–Gs complex with good homogeneity and stability, we used the NanoBiT tethering strategy, in which the C terminus of GLP-1R was directly attached to LgBiT subunit followed by a TEV protease cleavage site and a double MBP tag. […] The constructs were cloned into both pcDNA3.1 and pFastBac vectors for functional assays in mammalian cells and protein expression in insect cells, respectively. Other constructs including the full-length and various mutants of human GLP-1R were cloned into pcDNA3.1 vector for cAMP accumulation and whole-cell binding assays.
For GIPR, GLP-1R and GCGR, multi-targeting agonist stimulated cAMP accumulation was measured by a LANCE Ultra cAMP kit (PerkinElmer). After 24 h culture, the transfected cells were seeded into 384-well microtiter plates at a density of 3,000 cells per well in HBSS supplemented with 5 mM HEPES, 0.1% (w/v) BSA or 0.1% (w/v) casein and 0.5 mM 3-isobutyl-1-methylxanthine. The cells were stimulated with different concentrations of peptide agonists for 40 min at RT. Eu-cAMP tracer and ULight^TM-anti-cAMP were then diluted by cAMP detection buffer and added to the plates separately to terminate the reaction. Plates were incubated at RT for 1 h and the fluorescence intensity measured at 620 nm and […] by an EnVision multilabel plate reader (PerkinElmer).
For orientation: Changes in cAMP serve as a functional read-out for many G protein-coupled receptors.

The target in assay [3] is T1, GLP-1R. The experiment in a line: β-arrestin 2 recruitment (BRET). It is filed as cell-based. Details: expressed in transfected cells; host or cells: HEK293T. The settings on record: HEK-293T, GLP-1R WT, HEK293T. The protocol: HEK293T cells (3.2 × 10^6 cells/10 cm plate) were grown for 24 h before transiently transfection with 15 μg plasmid containing GIPR, GLP-1R or GCGR tagged with Rluc8 and β-arrestin 2 with a Venus-tag at the N terminus at a ratio of 1:9 by Lipofectamine 3000 transfection reagent. After cells were grown for 24 h, transiently transfected cells were then seeded onto poly-D-lysine coated 96-well culture plates (50,000 cells/well) in DMEM with 10% FBS. Cells were grown for 20 h before incubation in assay buffer (HBSS supplemented with 10 mM HEPES, 0.1% BSA or 0.1% casein, pH 7.4) for 30 min at 37 °C. Coelentrazine-h (Yeasen Biotech) was added to a final concentration of 5 μM for 5 min before bioluminescence resonance energy transfer (BRET) readings were made using an EnVision plate reader (PerkinElmer). BRET baseline measurements were collected for 15 cycles prior to ligand addition. After which, BRET was measured for 55 cycles.

T1 sequence (P43220 24-463): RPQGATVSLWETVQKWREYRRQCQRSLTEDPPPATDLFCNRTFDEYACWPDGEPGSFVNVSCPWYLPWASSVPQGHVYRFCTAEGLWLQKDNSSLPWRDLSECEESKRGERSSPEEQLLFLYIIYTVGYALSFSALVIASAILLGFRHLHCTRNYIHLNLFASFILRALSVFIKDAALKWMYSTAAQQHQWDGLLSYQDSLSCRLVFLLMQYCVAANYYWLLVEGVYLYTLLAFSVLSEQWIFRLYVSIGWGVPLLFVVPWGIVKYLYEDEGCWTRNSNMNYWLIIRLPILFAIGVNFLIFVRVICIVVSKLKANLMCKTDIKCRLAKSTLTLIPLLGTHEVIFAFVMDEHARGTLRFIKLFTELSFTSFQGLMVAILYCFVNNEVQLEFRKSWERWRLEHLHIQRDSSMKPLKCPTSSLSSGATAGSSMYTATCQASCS
GCGR, sequence (P47871 26-477): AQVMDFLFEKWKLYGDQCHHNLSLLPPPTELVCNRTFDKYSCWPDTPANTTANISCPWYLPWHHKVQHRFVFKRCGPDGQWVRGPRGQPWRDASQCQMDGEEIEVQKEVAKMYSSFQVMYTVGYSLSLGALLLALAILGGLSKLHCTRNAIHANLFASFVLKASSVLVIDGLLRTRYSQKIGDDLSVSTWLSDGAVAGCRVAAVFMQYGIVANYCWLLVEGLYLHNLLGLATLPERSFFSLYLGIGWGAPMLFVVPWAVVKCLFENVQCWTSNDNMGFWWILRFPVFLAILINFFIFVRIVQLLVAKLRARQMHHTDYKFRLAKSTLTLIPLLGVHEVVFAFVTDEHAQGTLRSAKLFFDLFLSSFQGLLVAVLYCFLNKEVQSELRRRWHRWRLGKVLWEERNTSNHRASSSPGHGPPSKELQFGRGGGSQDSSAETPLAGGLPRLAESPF

The term Emax denotes the greatest response seen or fitted, relative to the assay's reference. Consider `CCCCCCCCCCCCCCCC(=O)N[C@@H](CCC(=O)NCCCC[C@H](NC(=O)[C@H](CC(=O)O)NC(=O)[C@H](CO)NC(=O)[C@@H](NC(=O)[C@H](Cc1ccccc1)NC(=O)[C@@H](NC(=O)CNC(=O)[C@H](CCC(N)=O)NC(=O)C(C)(C)NC(=O)[C@@H](N)Cc1c[nH]cn1)[C@@H](C)O)[C@@H](C)O)C(=O)N[C@@H](CO)C(=O)N[C@@H](CCCCN)C(=O)N[C@@H](Cc1ccc(O)cc1)C(=O)N[C@@H](CC(C)C)C(=O)N[C@@H](CC(=O)O)C(=O)N[C@@H](CCC(=O)O)C(=O)N[C@@H](CCCNC(=N)N)C(=O)N[C@@H](C)C(=O)N[C@@H](C)C(=O)N[C@@H](CCC(N)=O)C(=O)N[C@@H](CC(=O)O)C(=O)N[C@@H](Cc1ccccc1)C(=O)N[C@H](C(=O)N[C@@H](CCC(N)=O)C(=O)N[C@@H](Cc1c[nH]c2ccccc12)C(=O)N[C@@H](CC(C)C)C(=O)N[C@@H](CC(C)C)C(=O)N[C@@H](CC(=O)O)C(=O)NCC(=O)NCC(=O)N1CCC[C@H]1C(=O)N[C@@H](CO)C(=O)N[C@@H](CO)C(=O)NCC(=O)N[C@@H](C)C(=O)N1CCC[C@H]1C(=O)N1CCC[C@H]1C(=O)N1CCC[C@H]1C(=O)N[C@@H](CO)C(N)=O)C(C)C)C(=O)O` [Peptide 20], for which the IC50 in assay [1] (Fig. 7c receptor binding profile, n = 3 in duplicate, SEM, read-out: GCGR (pIC50 ± S.E.M.) (converted)) was 107 nM; in assay [1] (GCGR WT, 0.1% BSA, CHO-K1, read-out: Binding pIC50 (converted)), 55 nM; in assay [1] (GCGR WT, 0.1% casein, CHO-K1, read-out: Binding pIC50 (converted)) it was 16.6 nM; in assay [1] (GCGR WT, CHO-K1, read-out: binding pIC50 (converted)), 89.1 nM. Further, the “binding Span” value in assay [1] (GCGR WT, CHO-K1) stood at 99.29 ± 3.10 % WT. Besides, the EC50 in assay [2] (GLP-1R WT, read-out: cAMP pEC50 (converted)) is 0.00269 nM; in assay [2] (GLP-1R, n = 4, SEM, read-out: cAMP pEC50 ± S.E.M. (converted)), 0.00123 nM. Moreover, the Emax in assay [2] (GLP-1R WT, 0.1% BSA, read-out: cAMP accumulation Emax) is 99.24 ± 0.96%; in assay [2] (GLP-1R WT, 0.1% casein, read-out: cAMP accumulation Emax), 98.5 ± 1.33%; in assay [2] (GLP-1R WT, read-out: cAMP Emax) it was 99.6 ± 1.37%; in assay [2] (GLP-1R, n = 4, SEM, read-out: cAMP Emax ± S.E.M.), 99.6 ± 1.17%; in assay [3] (0.1% BSA), 73.5 ± 1.86%; in assay [3] (0.1% casein), 81 ± 1.28%.
